Assay results reported in patent US9062071B2, “Substituted piperidines as HDM2 inhibitors” (Merck Sharp & Dohme Corp, priority 2011, dated 2015).

Molecular target: HDM2 protein (Homo sapiens, UniProt Q00987)
Assay: fluorescence polarization screening assay (FP IC50)
Assay type: binding
Conditions: class symbols
Experimental: The compounds were evaluated to determine activity at the HDM2 protein by known methods such as the fluorescence polarization screening assay that measures the inhibitory concentration that achieves 50% of maximal activity (FP IC50) and the dissociation constant for inhibitor binding (FP Ki). [Zhang et al., J. Analytical Biochemistry 331: 138-146 (2004)].

HDM2 protein, sequence (Q00987 whole entry): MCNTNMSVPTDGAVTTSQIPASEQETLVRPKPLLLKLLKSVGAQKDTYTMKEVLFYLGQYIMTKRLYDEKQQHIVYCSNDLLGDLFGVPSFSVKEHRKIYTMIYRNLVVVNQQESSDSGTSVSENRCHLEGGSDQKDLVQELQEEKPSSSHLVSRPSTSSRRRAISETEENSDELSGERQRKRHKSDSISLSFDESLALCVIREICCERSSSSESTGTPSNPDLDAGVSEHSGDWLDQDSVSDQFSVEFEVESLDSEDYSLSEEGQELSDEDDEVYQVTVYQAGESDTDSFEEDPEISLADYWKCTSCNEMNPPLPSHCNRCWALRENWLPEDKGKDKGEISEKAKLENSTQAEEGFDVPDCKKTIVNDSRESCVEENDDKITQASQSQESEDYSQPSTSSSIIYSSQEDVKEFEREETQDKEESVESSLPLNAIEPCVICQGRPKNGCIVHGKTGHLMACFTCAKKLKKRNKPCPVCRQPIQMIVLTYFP

IC50 [nM]	SMILES
1 to 100	COCCN1CCN(CC[C@H]2N(C(=O)c3ncccc3C(F)(F)F)CCC[C@@]2(Oc2csc(C(F)(F)F)c2)C(=O)N2CCc3cc(Cl)ccc3C2)CC1 [Compound A118, 6-chloro-2-{[(2R,3S)-2-{2-[4-(2-methoxyethyl)piperazin-1-yl]ethyl}-1-{[3-(trifluoromethyl)pyridin-2-yl]carbonyl}-3-{[5-(trifluoromethyl)thiophen-3-yl]oxy}piperidin-3-yl]carbonyl}-1,2,3,4-tetrahydroisoquinoline]
1 to 100	CCC[C@H]1N(C(=O)c2ncccc2C(F)(F)F)CCC[C@@]1(Oc1csc(C(F)(F)F)c1)C(=O)N1CCc2cc(Cl)ccc2C1C(=O)O (stereo partly drawn) [Compound A100, 6-chloro-2-{[(2R,3S)-2-propyl-1-{[3-(trifluoromethyl)pyridin-2-yl]carbonyl}-3-{[5-(trifluoromethyl)thiophen-3-yl]oxy}piperidin-3-yl]carbonyl}-1,2,3,4-tetrahydroisoquinoline-1-carboxylic acid]
101 to 20000	CCC[C@H]1N(C(=O)c2ncccc2C(F)(F)F)CCC[C@@]1(Oc1csc(C(F)(F)F)c1)C(=O)N1CCc2ccc(OC)cc2C1 [Compound A140, 7-methoxy-2-{[(2R,3S)-2-propyl-1-{[3-(trifluoromethyl)pyridin-2-yl]carbonyl}-3-{[5-(trifluoromethyl)thiophen-3-yl]oxy}piperidin-3-yl]carbonyl}-1,2,3,4-tetrahydroisoquinoline]
101 to 20000	CCC[C@H]1N(C(=O)c2ncccc2C(F)(F)F)CCC[C@@]1(Oc1csc(C(F)(F)F)c1)C(=O)N1CCc2cc(Cl)ccc2C1CC(C(=O)O)C(C)C (stereo partly drawn) [Compound A180, 2-[(6-chloro-2-{[(2R,3S)-2-propyl-1-{[3-(trifluoromethyl)pyridin-2-yl]carbonyl}-3-{[5-(trifluoromethyl)thiophen-3-yl]oxy}piperidin-3-yl]carbonyl}-1,2,3,4-tetrahydroisoquinolin-1-yl)methyl]-3-methylbutanoic acid]
1 to 100	CCC[C@H]1N(C(=O)c2ncccc2C(F)(F)F)CCC[C@@]1(Oc1csc(C(F)(F)F)c1)C(=O)N1CCc2cc(Cl)ccc2C1COC (stereo partly drawn) [Compound A106, 6-chloro-1-(methoxymethyl)-2-{[(2R,3S)-2-propyl-1-{[3-(trifluoromethyl)pyridin-2-yl]carbonyl}-3-{[5-(trifluoromethyl)thiophen-3-yl]oxy}piperidin-3-yl]carbonyl}-1,2,3,4-tetrahydroisoquinoline]
101 to 20000	CCC[C@H]1N(C(=O)c2ncccc2C(F)(F)F)CCC[C@@]1(Oc1csc(C(F)(F)F)c1)C(=O)N1CCc2c(ccc(Cl)c2Cl)C1 [Compound A86, 5,6-dichloro-2-{[(2R,3S)-2-propyl-1-{[3-(trifluoromethyl)pyridin-2-yl]carbonyl}-3-{[5-(trifluoromethyl)thiophen-3-yl]oxy}piperidin-3-yl]carbonyl}-1,2,3,4-tetrahydroisoquinoline]
1 to 100	CCC[C@H]1N(C(=O)c2ncccc2C(F)(F)F)CCC[C@@]1(Oc1csc(C(F)(F)F)c1)C(=O)N1CCc2cc(Cl)ccc2[C@H]1CCC(=O)NC#N [Compound A79, 3-[(1R)-6-chloro-2-{[(2R,3S)-2-propyl-1-{[3-(trifluoromethyl)pyridin-2-yl]carbonyl}-3-{[5-(trifluoromethyl)thiophen-3-yl]oxy}piperidin-3-yl]carbonyl}-1,2,3,4-tetrahydroisoquinolin-1-yl]-N-cyanopropanamide]
1 to 100	CCC[C@H]1N(C(=O)c2ncccc2C(F)(F)F)CCC[C@@]1(Oc1csc(C(F)(F)F)c1)C(=O)N1CCc2cc(Cl)ccc2C1C(=O)O (stereo partly drawn) [Compound A102, 6-chloro-2-{[(2R,3S)-2-propyl-1-{[3-(trifluoromethyl)pyridin-2-yl]carbonyl}-3-{[5-(trifluoromethyl)thiophen-3-yl]oxy}piperidin-3-yl]carbonyl}-1,2,3,4-tetrahydroisoquinoline-1-carboxylic acid]
101 to 20000	CCC[C@H]1N(C(=O)c2ncccc2C(F)(F)F)CCC[C@@]1(Oc1csc(C(F)(F)F)c1)C(=O)N1Cc2ccccc2C(C(=O)O)C1 (stereo partly drawn) [Compound A154, 2-{[(2R,3S)-2-propyl-1-{[3-(trifluoromethyl)pyridin-2-yl]carbonyl}-3-{[5-(trifluoromethyl)thiophen-3-yl]oxy}piperidin-3-yl]carbonyl}-1,2,3,4-tetrahydroisoquinoline-4-carboxylic acid]
1 to 100	CN1CCN(CC[C@H]2N(C(=O)c3ncccc3C(F)(F)F)CCC[C@@]2(Oc2csc(C(F)(F)F)c2)C(=O)N2CCc3cc(Cl)ccc3C2)CC1 [Compound A115, 6-chloro-2-{[(2R,3S)-2-[2-(4-methylpiperazin-1-yl)ethyl]-1-{[3-(trifluoromethyl)pyridin-2-yl]carbonyl}-3-{[5-(trifluoromethyl)thiophen-3-yl]oxy}piperidin-3-yl]carbonyl}-1,2,3,4-tetrahydroisoquinoline]
1 to 100	CCC[C@H]1N(C(=O)c2ncccc2C(F)(F)F)CCC[C@@]1(Oc1csc(C(F)(F)F)c1)C(=O)N1CCc2cc(Cl)ccc2C1CCCC(=O)O (stereo partly drawn) [Compound A74, 4-(6-chloro-2-{[(2R,3S)-2-propyl-1-{[3-(trifluoromethyl)pyridin-2-yl]carbonyl}-3-{[5-(trifluoromethyl)thiophen-3-yl]oxy}piperidin-3-yl]carbonyl}-1,2,3,4-tetrahydroisoquinolin-1-yl)butanoic acid]
101 to 20000	CCC[C@H]1N(C(=O)c2ncccc2C(F)(F)F)CCC[C@@]1(Oc1csc(C(F)(F)F)c1)C(=O)N1CCc2ccc(Br)cc2C1 [Compound A142, 7-bromo-2-{[(2R,3S)-2-propyl-1-{[3-(trifluoromethyl)pyridin-2-yl]carbonyl}-3-{[5-(trifluoromethyl)thiophen-3-yl]oxy}piperidin-3-yl]carbonyl}-1,2,3,4-tetrahydroisoquinoline]
1 to 100	CCC[C@H]1N(C(=O)c2ncccc2C(F)(F)F)CCC[C@@]1(Oc1csc(C(F)(F)F)c1)C(=O)N1CCc2cc(Cl)ccc2C1CC(=O)O (stereo partly drawn) [Compound A55, (6-chloro-2-{[(2R,3S)-2-propyl-1-{[3-(trifluoromethyl)pyridin-2-yl]carbonyl}-3-{[5-(trifluoromethyl)thiophen-3-yl]oxy}piperidin-3-yl]carbonyl}-1,2,3,4-. tetrahydroisoquinolin-1-yl)acetic acid]
1 to 100	CCC[C@H]1N(C(=O)c2ncccc2C(F)(F)F)CCC[C@@]1(Oc1csc(C(F)(F)F)c1)C(=O)N1Cc2cc(F)ccc2C[C@@H]1CCC(=O)O [Compound A132, 3-[(3S)-7-fluoro-2-{[(2R,3S)-2-propyl-1-{[3-(trifluoromethyl)pyridin-2-yl]carbonyl}-3-{[5-(trifluoromethyl)thiophen-3-yl]oxy}piperidin-3-yl]carbonyl}-1,2,3,4-tetrahydroisoquinolin-3-yl]propanoic acid]
1 to 100	CCC[C@H]1N(C(=O)c2ncccc2C(F)(F)F)CCC[C@@]1(Oc1csc(C(F)(F)F)c1)C(=O)N1CCc2cc(Cl)ccc2C1COCC(=O)O (stereo partly drawn) [Compound A181, [(6-chloro-2-{[(2R,3S)-2-propyl-1-{[3-(trifluoromethyl)pyridin-2-yl]carbonyl}-3-{[5-(trifluoromethyl)thiophen-3-yl]oxy}piperidin-3-yl]carbonyl}-1,2,3,4-tetrahydroisoquinolin-1-yl)methoxy]acetic acid]
1 to 100	CCC[C@H]1N(C(=O)c2ncccc2C(F)(F)F)CCC[C@@]1(Oc1csc(C(F)(F)F)c1)C(=O)N1CCc2sc(Cl)cc2C1CC(C)(C)C(=O)O (stereo partly drawn) [Compound A26, 3-(2-chloro-5-{[(2R,3S)-2-propyl-1-{[3-(trifluoromethyl)pyridin-2-yl]carbonyl}-3-{[5-(trifluoromethyl)thiophen-3-yl]oxy}piperidin-3-yl]carbonyl}-4,5,6,7-tetrahydrothieno[3,2-c]pyridin-4-yl)-2,2-dimethylpropanoic acid]
101 to 20000	CCC[C@H]1N(C(=O)c2ncccc2C(F)(F)F)CCC[C@@]1(Oc1csc(C(F)(F)F)c1)C(=O)N1CCc2cc(Cl)ccc2C1CO (stereo partly drawn) [Compound A105, (6-chloro-2-{[(2R,3S)-2-propyl-1-{[3-(trifluoromethyl)pyridin-2-yl]carbonyl}-3-{[5-(trifluoromethyl)thiophen-3-yl]oxy}piperidin-3-yl]carbonyl}-1,2,3,4-tetrahydroisoquinolin-1-yl)methanol]
1 to 100	COCCN(C)CC[C@H]1N(C(=O)c2ncccc2C(F)(F)F)CCC[C@@]1(Oc1csc(C(F)(F)F)c1)C(=O)N1CCc2cc(Cl)ccc2C1 [Compound A117, 2-[(2R,3S)-3-[(6-chloro-3,4-dihydroisoquinolin-2(1H)-yl)carbonyl]-1-{[3-(trifluoromethyl)pyridin-2-yl]carbonyl}-3-{[5-(trifluoromethyl)thiophen-3-yl]oxy}piperidin-2-yl]-N-(2-methoxyethyl)-N-methylethanamine]
101 to 20000	CCC[C@H]1N(C(=O)c2ncccc2C(F)(F)F)CCC[C@@]1(Oc1csc(C(F)(F)F)c1)C(=O)N1CCc2cc(N(C)C)ccc2C1 [Compound A83, N,N-dimethyl-2-{[(2R,3S)-2-propyl-1-{[3-(trifluoromethyl)pyridin-2-yl]carbonyl}-3-{[5-(trifluoromethyl)thiophen-3-yl]oxy}piperidin-3-yl]carbonyl}-1,2,3,4-tetrahydroisoquinolin-6-amine]
1 to 100	CCC[C@H]1N(C(=O)c2ncccc2C(F)(F)F)CCC[C@@]1(Oc1csc(C(F)(F)F)c1)C(=O)N1Cc2cc(F)c(F)cc2C[C@H]1CCC(=O)O [Compound A157, 3-[(3R)-6,7-difluoro-2-{[(2R,3S)-2-propyl-1-{[3-(trifluoromethyl)pyridin-2-yl]carbonyl}-3-{[5-(trifluoromethyl)thiophen-3-yl]oxy}piperidin-3-yl]carbonyl}-1,2,3,4-tetrahydroisoquinolin-3-yl]propanoic acid]
